Here are results for ten compounds from ChEMBL document CHEMBL6153098, “Immunomodulatory Potential of a Bibenzyl-dihydrophenanthrene Derivative Isolated from Calanthe cardioglossa” (J Nat Prod, 2025).

In series [1] the test system is THP-1. The series can be described thus: Cytotoxicity against human THP-1 cells assessed as cell viability at 10 uM incubated for 4 hrs by PrestoBlue cell viability assay. The series is classed as toxicity, cell-based. To be noted: thp-1, 4 h.
For series [2], the system named is THP-1. The series can be described thus: Immunomodulatory activity in human THP-1 cells assessed as reduction in LPS-induced TNF-alpha production at 10 uM incubated for 4 hrs by ELISA assay. The series is classed as functional, cell-based.
Another series deals with PBMC. The series can be described thus: Immunomodulatory activity in multiple sclerosis pateint-derived human PBMC cells assessed as reduction in LPS-induced TNF-alpha production in CD14+ monocytes at 10 uM incubated for 4 hrs by flow cytometry assay. The series is classed as functional, cell-based.

Active and inactive are the calls of the source. No cut-off for these calls is given here.

For the compound `COc1cc(O)c2c(c1)CCc1cc(O)c(-c3c(O)cc(OC)c4c3CCc3cc(O)ccc3-4)cc1-2`, in the series on THP-1 [1], the Activity result is recorded as “Non-toxic”. In addition, in the series on THP-1 [2], the outcome was Active.
As to `COc1cc([C@H]2Oc3cc4c(cc3[C@@H]2CO)-c2c(cc(O)cc2OC)CC4)ccc1O`, the Activity entry with THP-1 [1] is “Non-toxic”.
`COc1cc(O)c2c(c1)CCc1cc(O)ccc1-2`: the outcome in the series with THP-1 [2] was Active.
On to `COc1cc(O)cc2c1-c1cc(-c3c(O)cc(OC)c4c3CCc3cc(O)ccc3-4)c(O)cc1CC2`, for which the Activity result in the series with THP-1 [1] is recorded as “Non-toxic”.
On to `COc1cc(C2Oc3cc(OC)c4c(c3C2COC(C)=O)CCc2cc(O)ccc2-4)ccc1O` (stereo unspecified), for which the Activity entry in the series with THP-1 [1] is on record as “Non-toxic”.
On to `COc1cc(O)cc(CCc2ccc(O)c(OC)c2)c1` [GIGANTOL], for which the Activity result in the series with THP-1 [1] is on record as “Non-toxic”. Moreover, in the series with THP-1 [2], the result was Active.
For `COc1cc(O)cc2c1-c1ccc(O)cc1CC2`, in that order: “Non-toxic” and “inactive”.
Regarding `COc1cccc(CCc2cc(OC)cc(O)c2-c2cc3c(cc2O)CCc2cc(OC)cc(O)c2-3)c1`, the Activity result is recorded as “Non-toxic” with THP-1 [1] and “Active; Compound Exhibited The Most Pronounced Activity” with THP-1 [2]. The result with PBMC was Active.
`O=c1c2ccccc2ncn1-c1ccccc1O`: the Activity entry in the series with THP-1 [1] was “Non-toxic”.
`COc1cc(O)cc(CCc2cccc(O)c2)c1` [BATATASIN III]: the Activity entry in the series with THP-1 [1] was “Non-toxic”. The result in the series with THP-1 [2] was Active.
